The source of these data is the supplement of paper PMC10307832.

Common to all, as to assay: relative viability (nuclei count vs DMSO), 5 days (fraction); higher = more cells survive
Compound in the test “Metformin + Luminespib”: CN(C)C(=N)NC(=N)N [Metformin] + CCNC(=O)c1noc(-c2cc(C(C)C)c(O)cc2O)c1-c1ccc(CN2CCOCC2)cc1 [Luminespib] (partner 0.01 µM)
A digest of the protocol:
(§1)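 Relative viability is defined as nuclei in treated wells over nuclei in vehicle wells. Duplicate plates were run and medians reported. Lung cancer cell lines in 1536-well plates were dosed by pin tool one day after seeding, with one drug or with a fixed anchor-drug dose plus five library-drug doses (not always all listed) in √10 steps, and nuclei were counted after 5 days.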

Compound in the test “Metformin + Crizotinib”: CN(C)C(=N)NC(=N)N [Metformin] + C[C@@H](Oc1cc(-c2cnn(C3CCNCC3)c2)cnc1N)c1c(Cl)ccc(F)c1Cl [Crizotinib] (partner 1 µM)
A digest of the protocol: as §1

Compound in the test “Metformin + Pemetrexed”: CN(C)C(=N)NC(=N)N [Metformin] + Nc1nc2[nH]cc(CCc3ccc(C(=O)N[C@@H](CCC(=O)O)C(=O)O)cc3)c2c(=O)[nH]1 [Pemetrexed] (partner 0.2 µM)
In outline:
as §1

Compound in the test “Apatinib + OSI-027”: N#CC1(c2ccc(NC(=O)c3cccnc3NCc3ccncc3)cc2)CCCC1 [Apatinib] + COc1cccc2cc(-c3nc([C@H]4CC[C@H](C(=O)O)CC4)n4ncnc(N)c34)[nH]c12 [OSI-027] (partner 0.5 µM)
A digest of the protocol: as §1

NCI-H1651: the relative viability with Metformin + Luminespib (first compound 10 µM) is 1.19; with Metformin + Luminespib (first compound 31.62 µM), 1.3; in the test with Metformin + Luminespib (first compound 100 µM), 1.06; with Metformin + Luminespib (first compound 316.23 µM), 0.828; with Metformin + Luminespib (first compound 1000 µM) it was 0.989; with Metformin + Crizotinib (first compound 10 µM) it was 0.933. In addition, the relative viability with Metformin + Crizotinib (first compound 31.62 µM) worked out at 0.957; with Metformin + Crizotinib (first compound 100 µM) it was 0.939; with Metformin + Crizotinib (first compound 316.23 µM), 0.964; with Metformin + Crizotinib (first compound 1000 µM), 0.97; with Metformin + Pemetrexed (first compound 10 µM) it was 0.445; with Metformin + Pemetrexed (first compound 31.62 µM), 0.62. Also, the relative viability with Metformin + Pemetrexed (first compound 100 µM) stood at 0.608; with Metformin + Pemetrexed (first compound 316.23 µM), 0.53; with Metformin + Pemetrexed (first compound 1000 µM), 0.599; in the test with Apatinib + OSI-027 (first compound 0.08 µM), 0.782; with Apatinib + OSI-027 (first compound 0.253 µM), 0.867; in the test with Apatinib + OSI-027 (first compound 0.8 µM), 0.647. For the same cell line, the figures for the relative viability with Apatinib + OSI-027 (first compound 2.53 µM) and with Apatinib + OSI-027 (first compound 8 µM) were 0.683 and 0.599, respectively.
On to NCI-H1666, for which the relative viability with Metformin + Luminespib (first compound 10 µM) came out at 1.06; in the test with Metformin + Luminespib (first compound 31.62 µM), 1.11; with Metformin + Luminespib (first compound 100 µM), 1.16; with Metformin + Luminespib (first compound 316.23 µM), 1.06; with Metformin + Luminespib (first compound 1000 µM), 1.16; with Metformin + Crizotinib (first compound 10 µM), 1.26. The relative viability is 1.03 in the test with Metformin + Crizotinib (first compound 31.62 µM); 1.15 with Metformin + Crizotinib (first compound 100 µM); 1.09 with Metformin + Crizotinib (first compound 316.23 µM); 1.2 with Metformin + Crizotinib (first compound 1000 µM); 0.825 in the test with Metformin + Pemetrexed (first compound 10 µM); 0.862 in the test with Metformin + Pemetrexed (first compound 31.62 µM). Besides, the relative viability with Metformin + Pemetrexed (first compound 100 µM) stood at 0.854; with Metformin + Pemetrexed (first compound 316.23 µM) it was 0.871; in the test with Metformin + Pemetrexed (first compound 1000 µM), 0.928; with Apatinib + OSI-027 (first compound 0.08 µM), 0.883; with Apatinib + OSI-027 (first compound 0.253 µM) it was 0.826; in the test with Apatinib + OSI-027 (first compound 0.8 µM) it was 0.797. Moreover, the relative viability with Apatinib + OSI-027 (first compound 2.53 µM) is 0.73; with Apatinib + OSI-027 (first compound 8 µM), 0.755.
Turning to NCI-H1734, the relative viability amounted to 0.145 in the test with Metformin + Luminespib (first compound 10 µM); 0.2 with Metformin + Luminespib (first compound 31.62 µM); 0.206 in the test with Metformin + Luminespib (first compound 100 µM); 0.181 with Metformin + Luminespib (first compound 316.23 µM); 0.19 with Metformin + Luminespib (first compound 1000 µM); 0.743 in the test with Metformin + Crizotinib (first compound 10 µM). Further, the relative viability was 0.83 in the test with Metformin + Crizotinib (first compound 31.62 µM); 0.654 in the test with Metformin + Crizotinib (first compound 100 µM); 0.669 in the test with Metformin + Crizotinib (first compound 316.23 µM); 0.74 with Metformin + Crizotinib (first compound 1000 µM); 0.49 with Metformin + Pemetrexed (first compound 10 µM); 0.418 in the test with Metformin + Pemetrexed (first compound 31.62 µM). Also, the relative viability worked out at 0.461 with Metformin + Pemetrexed (first compound 100 µM); 0.456 in the test with Metformin + Pemetrexed (first compound 316.23 µM); 0.455 in the test with Metformin + Pemetrexed (first compound 1000 µM); 0.597 with Apatinib + OSI-027 (first compound 0.08 µM); 0.597 with Apatinib + OSI-027 (first compound 0.253 µM); 0.578 with Apatinib + OSI-027 (first compound 0.8 µM). Also, the relative viability with Apatinib + OSI-027 (first compound 2.53 µM) came to 0.495; with Apatinib + OSI-027 (first compound 8 µM), 0.453.
Regarding NCI-H1755, the relative viability was found to be 0.504 in the test with Metformin + Luminespib (first compound 10 µM); 0.565 in the test with Metformin + Luminespib (first compound 31.62 µM); 0.475 with Metformin + Luminespib (first compound 100 µM); 0.419 with Metformin + Luminespib (first compound 316.23 µM); 0.418 with Metformin + Luminespib (first compound 1000 µM); 0.677 in the test with Metformin + Crizotinib (first compound 10 µM). The relative viability was found to be 0.792 in the test with Metformin + Crizotinib (first compound 31.62 µM); 0.744 in the test with Metformin + Crizotinib (first compound 100 µM); 0.756 with Metformin + Crizotinib (first compound 316.23 µM); 0.753 in the test with Metformin + Crizotinib (first compound 1000 µM); 0.416 with Metformin + Pemetrexed (first compound 10 µM); 0.443 in the test with Metformin + Pemetrexed (first compound 31.62 µM). In addition, the relative viability is 0.392 with Metformin + Pemetrexed (first compound 100 µM); 0.34 in the test with Metformin + Pemetrexed (first compound 316.23 µM); 0.376 with Metformin + Pemetrexed (first compound 1000 µM); 0.838 with Apatinib + OSI-027 (first compound 0.08 µM); 0.729 in the test with Apatinib + OSI-027 (first compound 0.253 µM); 0.699 with Apatinib + OSI-027 (first compound 0.8 µM). In addition, the relative viability in the test with Apatinib + OSI-027 (first compound 2.53 µM) turned out to be 0.672; in the test with Apatinib + OSI-027 (first compound 8 µM) it was 0.523.
NCI-H1792: the relative viability was determined as 0.599 with Metformin + Luminespib (first compound 10 µM); 0.57 with Metformin + Luminespib (first compound 31.62 µM); 0.789 with Metformin + Luminespib (first compound 100 µM); 0.418 with Metformin + Luminespib (first compound 316.23 µM); 0.485 with Metformin + Luminespib (first compound 1000 µM); 0.956 with Metformin + Crizotinib (first compound 31.62 µM). The relative viability with Metformin + Crizotinib (first compound 100 µM) was determined as 1.13; with Metformin + Crizotinib (first compound 316.23 µM) it was 0.971; with Metformin + Crizotinib (first compound 1000 µM), 0.98; with Metformin + Pemetrexed (first compound 10 µM), 0.968; with Metformin + Pemetrexed (first compound 31.62 µM), 0.862; with Metformin + Pemetrexed (first compound 100 µM), 0.952. Also, the relative viability in the test with Metformin + Pemetrexed (first compound 316.23 µM) was found to be 0.697; with Metformin + Pemetrexed (first compound 1000 µM) it was 0.903; in the test with Apatinib + OSI-027 (first compound 0.08 µM), 0.778; with Apatinib + OSI-027 (first compound 0.253 µM) it was 0.659; with Apatinib + OSI-027 (first compound 0.8 µM), 0.693; in the test with Apatinib + OSI-027 (first compound 2.53 µM) it was 0.475. Also, in the test with Apatinib + OSI-027 (first compound 8 µM), the relative viability was determined as 0.439.
Regarding NCI-H1915, the relative viability was 0.724 with Metformin + Luminespib (first compound 31.62 µM); 0.835 with Metformin + Luminespib (first compound 100 µM); 0.785 with Metformin + Luminespib (first compound 316.23 µM); 0.795 with Metformin + Luminespib (first compound 1000 µM); 0.985 in the test with Metformin + Crizotinib (first compound 31.62 µM); 0.918 in the test with Metformin + Crizotinib (first compound 100 µM). Also, the relative viability with Metformin + Crizotinib (first compound 316.23 µM) was 0.889; with Metformin + Crizotinib (first compound 1000 µM), 0.96; with Metformin + Pemetrexed (first compound 31.62 µM) it was 0.438; in the test with Metformin + Pemetrexed (first compound 100 µM) it was 0.404; with Metformin + Pemetrexed (first compound 316.23 µM), 0.379; with Metformin + Pemetrexed (first compound 1000 µM) it was 0.435. For the same cell line, the relative viability with Apatinib + OSI-027 (first compound 0.08 µM) was 0.67; in the test with Apatinib + OSI-027 (first compound 0.253 µM), 0.614; in the test with Apatinib + OSI-027 (first compound 0.8 µM), 0.672; with Apatinib + OSI-027 (first compound 2.53 µM), 0.537; in the test with Apatinib + OSI-027 (first compound 8 µM), 0.503.
On to NCI-H1944, for which the relative viability is 0.815 with Metformin + Luminespib (first compound 10 µM); 0.902 with Metformin + Luminespib (first compound 31.62 µM); 0.895 with Metformin + Luminespib (first compound 100 µM); 0.725 in the test with Metformin + Luminespib (first compound 316.23 µM); 0.804 with Metformin + Luminespib (first compound 1000 µM); 1.06 with Metformin + Crizotinib (first compound 10 µM). Moreover, the relative viability in the test with Metformin + Crizotinib (first compound 31.62 µM) stood at 1.29; with Metformin + Crizotinib (first compound 100 µM) it was 1.26; in the test with Metformin + Crizotinib (first compound 316.23 µM), 1.11; with Metformin + Crizotinib (first compound 1000 µM) it was 1.12; with Metformin + Pemetrexed (first compound 10 µM), 0.505; in the test with Metformin + Pemetrexed (first compound 31.62 µM), 0.75. The relative viability turned out to be 0.625 with Metformin + Pemetrexed (first compound 100 µM); 0.687 with Metformin + Pemetrexed (first compound 316.23 µM); 0.576 with Metformin + Pemetrexed (first compound 1000 µM); 0.419 with Apatinib + OSI-027 (first compound 0.08 µM); 0.387 in the test with Apatinib + OSI-027 (first compound 0.253 µM); 0.361 in the test with Apatinib + OSI-027 (first compound 0.8 µM). For the same cell line, the relative viability with Apatinib + OSI-027 (first compound 2.53 µM) was 0.378; in the test with Apatinib + OSI-027 (first compound 8 µM), 0.405.
